# Measurements from ChEMBL document CHEMBL1201862, “PubChem BioAssay data set” (2004).
#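 Cultured in 96-well plates, cells were exposed to test compound for 48 hours across five concentrations. GI50 marks 50% less growth.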 Activity calls are given as the source filed them. No stated cut-off is given here; in the data, active = GI50 up to about 1.1 µM and inactive = higher.
# Legend:
# Assay in all cases: NCI-60 cell line screen, 48 h
# SR = tested on: SR
# SK-MEL-2 = tested on: SK-MEL-2
# DMS-114 = tested on: DMS-114
# MOLT-4 = tested on: MOLT-4
# RPMI-8226 = tested on: RPMI-8226
# IGROV-1 = tested on: IGROV-1
# M14 = tested on: M14
# M19-MEL = tested on: M19-MEL
# SK-MEL-5 = tested on: SK-MEL-5
# SNB-75 = tested on: SNB-75
# OVCAR-4 = tested on: OVCAR-4
# UACC-62 = tested on: UACC-62
# COLO 205 = tested on: COLO 205
# OVCAR-3 = tested on: OVCAR-3
# SF-268 = tested on: SF-268
# NCI-H226 = tested on: NCI-H226
# EKVX = tested on: EKVX
# NCI-H460 = tested on: NCI-H460
# HL-60 = tested on: HL-60
# NCI-H23 = tested on: NCI-H23
# UO-31 = tested on: UO-31
# U-251 = tested on: U-251
# LOX IMVI = tested on: LOX IMVI
# ACHN = tested on: ACHN
# KM-20L2 = tested on: KM-20L2
# SF-539 = tested on: SF-539
# SF-295 = tested on: SF-295
# K562 = tested on: K562
# CCRF-CEM = tested on: CCRF-CEM
# DMS-273 = tested on: DMS-273
# A498 = tested on: A498
# Malme-3M = tested on: Malme-3M
# TK-10 = tested on: TK-10
# SN12C = tested on: SN12C
# OVCAR-5 = tested on: OVCAR-5
# SW-620 = tested on: SW-620
# XF498 = tested on: XF498
# RXF 393 = tested on: RXF 393
# SNB-19 = tested on: SNB-19
# SNB-78 = tested on: SNB-78
# HOP-92 = tested on: HOP-92
# HOP-18 = tested on: HOP-18
# CAKI-1 = tested on: CAKI-1
# UACC-257 = tested on: UACC-257
# HT-29 = tested on: HT-29
# DLD-1 = tested on: DLD-1
# NCI-H522 = tested on: NCI-H522
# HOP-62 = tested on: HOP-62
# OVCAR-8 = tested on: OVCAR-8
# HCT-116 = tested on: HCT-116
# HCT-15 = tested on: HCT-15
# SK-MEL-28 = tested on: SK-MEL-28
# SK-OV-3 = tested on: SK-OV-3
# A549 = tested on: A549
# KM12 = tested on: KM12
# 786-0 = tested on: 786-0
# LXFL 529 = tested on: LXFL 529
# MCF7 = tested on: MCF7
# HCC 2998 = tested on: HCC 2998
# NCI/ADR-RES = tested on: NCI/ADR-RES
smiles,measurement,setting,value
COC(OC)[C@@H](C)[C@H](O)[C@](C)(O)C1OC(C)(C)OC(C(C)C=C(C)C)C1C (stereo partly specified),GI50,SR,73.3 µM (inactive)
same,GI50,SK-MEL-2,> 100 µM (inactive)
same,GI50,DMS-114,94.6 µM (inactive)
same,GI50,MOLT-4,72.4 µM (inactive)
same,GI50,RPMI-8226,48.6 µM (inactive)
same,GI50,IGROV-1,> 100 µM (inactive)
same,GI50,M14,> 100 µM (inactive)
same,GI50,M19-MEL,> 100 µM (inactive)
same,GI50,SK-MEL-5,64.9 µM (inactive)
same,GI50,SNB-75,> 100 µM (inactive)
same,GI50,OVCAR-4,> 100 µM (inactive)
same,GI50,UACC-62,> 100 µM (inactive)
same,GI50,COLO 205,> 100 µM (inactive)
same,GI50,OVCAR-3,> 100 µM (inactive)
same,GI50,SF-268,> 100 µM (inactive)
same,GI50,NCI-H226,> 100 µM (inactive)
same,GI50,EKVX,> 100 µM (inactive)
same,GI50,NCI-H460,> 100 µM (inactive)
same,GI50,HL-60,29.9 µM (inactive)
same,GI50,NCI-H23,> 100 µM (inactive)
same,GI50,UO-31,80.7 µM (inactive)
same,GI50,U-251,> 100 µM (inactive)
same,GI50,LOX IMVI,> 100 µM (inactive)
same,GI50,ACHN,> 100 µM (inactive)
same,GI50,KM-20L2,> 100 µM (inactive)
same,GI50,SF-539,> 100 µM (inactive)
same,GI50,SF-295,> 100 µM (inactive)
same,GI50,K562,77.1 µM (inactive)
same,GI50,CCRF-CEM,> 100 µM (inactive)
same,GI50,DMS-273,> 100 µM (inactive)
same,GI50,A498,> 100 µM (inactive)
same,GI50,Malme-3M,> 100 µM (inactive)
same,GI50,TK-10,> 100 µM (inactive)
same,GI50,SN12C,> 100 µM (inactive)
same,GI50,OVCAR-5,> 100 µM (inactive)
same,GI50,SW-620,> 100 µM (inactive)
same,GI50,XF498,> 100 µM (inactive)
same,GI50,RXF 393,66.4 µM (inactive)
same,GI50,SNB-19,> 100 µM (inactive)
same,GI50,SNB-78,> 100 µM (inactive)
same,GI50,HOP-92,> 100 µM (inactive)
same,GI50,HOP-18,> 100 µM (inactive)
same,GI50,CAKI-1,> 100 µM (inactive)
same,GI50,UACC-257,93.1 µM (inactive)
same,GI50,HT-29,> 100 µM (inactive)
same,GI50,DLD-1,> 100 µM (inactive)
same,GI50,NCI-H522,> 100 µM (inactive)
same,GI50,HOP-62,> 100 µM (inactive)
same,GI50,OVCAR-8,> 100 µM (inactive)
same,GI50,HCT-116,> 100 µM (inactive)
same,GI50,HCT-15,> 100 µM
same,GI50,SK-MEL-28,> 100 µM (inactive)
same,GI50,SK-OV-3,> 100 µM (inactive)
same,GI50,A549,> 100 µM (inactive)
same,GI50,KM12,> 100 µM (inactive)
same,GI50,786-0,> 100 µM (inactive)
same,GI50,LXFL 529,> 100 µM (inactive)
C[N+](C)([O-])CCOc1cc2c(c3ccccc13)-c1ccccc1C2=O,GI50,SK-MEL-2,18.4 µM (inactive)
same,GI50,DMS-114,7.83 µM (inactive)
same,GI50,MOLT-4,3.46 µM (inactive)
same,GI50,RPMI-8226,12.3 µM (inactive)
same,GI50,IGROV-1,19.1 µM (inactive)
same,GI50,MCF7,11.7 µM (inactive)
same,GI50,M19-MEL,15.1 µM (inactive)
same,GI50,SK-MEL-5,14.4 µM (inactive)
same,GI50,SNB-75,17.5 µM (inactive)
same,GI50,OVCAR-4,3.92 µM (inactive)
same,GI50,UACC-62,14.4 µM (inactive)
same,GI50,COLO 205,16.3 µM (inactive)
same,GI50,OVCAR-3,11.7 µM (inactive)
same,GI50,SF-268,10.9 µM (inactive)
same,GI50,NCI-H226,15.7 µM (inactive)
same,GI50,HCC 2998,13.7 µM (inactive)
same,GI50,EKVX,25.9 µM (inactive)
same,GI50,NCI-H460,9.44 µM (inactive)
same,GI50,HL-60,14.3 µM (inactive)
same,GI50,NCI-H23,21.5 µM (inactive)
same,GI50,UO-31,17.8 µM (inactive)
same,GI50,U-251,13.3 µM (inactive)
same,GI50,LOX IMVI,4.31 µM (inactive)
same,GI50,KM-20L2,20.1 µM (inactive)
same,GI50,SF-539,15.1 µM (inactive)
same,GI50,SF-295,4.63 µM (inactive)
same,GI50,K562,15.8 µM (inactive)
same,GI50,CCRF-CEM,8.2 µM (inactive)
same,GI50,DMS-273,16.3 µM (inactive)
same,GI50,A498,20.3 µM (inactive)
same,GI50,Malme-3M,14 µM (inactive)
same,GI50,SN12C,9.08 µM (inactive)
same,GI50,OVCAR-5,24 µM (inactive)
same,GI50,SW-620,12.3 µM (inactive)
same,GI50,XF498,16.4 µM (inactive)
same,GI50,RXF 393,17.7 µM (inactive)
same,GI50,SNB-19,13.6 µM (inactive)
same,GI50,SNB-78,19.8 µM (inactive)
same,GI50,HOP-92,7.66 µM (inactive)
same,GI50,HOP-18,29.1 µM (inactive)
same,GI50,CAKI-1,21.5 µM (inactive)
same,GI50,UACC-257,6.65 µM (inactive)
same,GI50,HT-29,7.46 µM (inactive)
same,GI50,DLD-1,17 µM (inactive)
same,GI50,NCI-H522,10.2 µM (inactive)
same,GI50,HOP-62,14.2 µM (inactive)
same,GI50,NCI/ADR-RES,14.3 µM (inactive)
same,GI50,OVCAR-8,6.27 µM (inactive)
same,GI50,HCT-116,6.25 µM (inactive)
same,GI50,HCT-15,28.2 µM
same,GI50,SK-MEL-28,18.3 µM (inactive)
same,GI50,SK-OV-3,35.4 µM (inactive)
same,GI50,A549,23.3 µM (inactive)
same,GI50,KM12,13.6 µM (inactive)
